We go through 12 molecules from patent publication US20250296971A1, “GASTRIC INHIBITORY PEPTIDE RECEPTOR LIGANDS” (priority 2021, published 2025).

SMILES strings stand for the structures. *1 amine or outer side, *2 acyl side, *3 side chain or, on linkers, in order; H or OH if unused. Where a SMILES comes first, the peptide text is derived from it. Bridges are numbered along the chain shown (N, C = ends). [ ]: non-standard residue; d: D form. The star is where a group is joined. X3 = O=C(O)CN1CCN(CC(=O)O)CCN(CC(=O)NCCCOCCOCCOCCCN*)CCN(CC(=O)O)CC1; NH(1-deoxy-D-glucityl) = OC[C@@H](O)[C@@H](O)[C@H](O)[C@@H](O)CN*; DO3AM = NC(=O)CN1CCN(CC(N)=O)CCN(CC(=O)*)CCN(CC(N)=O)CC1; DOTA = O=C(O)CN1CCN(CC(=O)O)CCN(CC(=O)*)CCN(CC(=O)O)CC1; Trp(5-Cl) = N[C@@H](Cc1c[nH]c2ccc(Cl)cc12)C(=O)O; Pyridine(2,6-diCH2) = c1cc(C[*:1])nc(C[*:2])c1; Trp(5-F) = N[C@@H](Cc1c[nH]c2ccc(F)cc12)C(=O)O; Phe(2-Cl) = N[C@@H](Cc1ccccc1Cl)C(=O)O; Pro(4R-NH2) = N[C@H]1CN[C@H](C(=O)O)C1; 1Nal = N[C@@H](Cc1cccc2ccccc12)C(=O)O; Glutaryl = O=C(CCCC(=O)[*:2])[*:1]; Hyp = O=C(O)[C@@H]1C[C@@H](O)CN1; X1 = O=C(CN1CCC(N[*:1])CC1)[*:2]; Cha = N[C@@H](CC1CCCCC1)C(=O)O; Suc = O=C(CCC(=O)[*:2])[*:1]; αMeK = C[C@](N)(CCCCN)C(=O)O; Api = NC1(C(=O)O)CCNCC1; Thp = NC1(C(=O)O)CCOCC1; Bn = c1ccc(C*)cc1

The target in the test is T1, GIPR (CHO-K1-hGIPR cells) (Homo sapiens, UniProt P48546).
T1 construct: host or cells: CHO-K1
T1 sequence (P48546 22-466): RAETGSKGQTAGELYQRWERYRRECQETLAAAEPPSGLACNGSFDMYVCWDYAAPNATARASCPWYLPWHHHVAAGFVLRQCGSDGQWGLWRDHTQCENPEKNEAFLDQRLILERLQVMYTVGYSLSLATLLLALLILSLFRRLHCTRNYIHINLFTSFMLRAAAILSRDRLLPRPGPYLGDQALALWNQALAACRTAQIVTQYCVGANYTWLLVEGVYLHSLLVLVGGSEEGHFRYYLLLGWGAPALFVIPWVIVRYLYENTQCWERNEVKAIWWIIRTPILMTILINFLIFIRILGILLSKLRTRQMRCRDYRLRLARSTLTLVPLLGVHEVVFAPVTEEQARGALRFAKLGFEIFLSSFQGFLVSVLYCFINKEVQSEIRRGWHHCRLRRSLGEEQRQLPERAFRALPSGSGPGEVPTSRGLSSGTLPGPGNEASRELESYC
Nature of the test: FACS binding assay. As to conditions: competition with 20 nM GIP-057, 4° C. for 1 hour, read-out: pIC50 Category (converted). The method in brief: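 Peptide binding read by flow cytometry as APC-channel median fluorescence, fitted with a four-parameter logistic to yield EC50 or IC50. Cells were hGIPR-transfected CHO-K1 in PBS with 1% FCS, detected with 1 μg/mL APC-streptavidin, 30 min on ice.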
With `CC[C@H](C)[C@H](NC(=O)[C@H](CC(C)C)NC(=O)[C@H](C)NC(=O)[C@H](CSC)NC(=O)[C@H](CC(C)C)NC(=O)[C@H](CCC(=O)O)NC(=O)[C@@H]1CCCN1C(=O)[C@H](Cc1c[nH]c2ccccc12)NC(=O)[C@H](Cc1c[nH]c2ccccc12)NC(=O)[C@H](CC(=O)O)NC(=O)[C@H](Cc1ccc(O)cc1)NC(=O)[C@@H](N)CCSC)C(=O)N[C@@H](CSCc1ccccc1)C(N)=O` [GIP-369] (H-MYDWWPELC(Me)ALIC(Bn)-NH2), the IC50 was greater than 1000 nM.

As to `CC[C@H](C)[C@@H]1NC(=O)[C@H](CC(C)C)NC(=O)C2(CCN(C(=O)CN3CCN(CC(N)=O)CCN(CC(N)=O)CCN(CC(N)=O)CC3)CC2)NC(=O)[C@@H](NC(=O)[C@@H](CC(C)C)NC(=O)[C@H](CCC(=O)O)NC(=O)[C@@H]2C[C@@H](N)CN2C(=O)[C@H](Cc2c[nH]c3ccc(Cl)cc23)NC(=O)[C@H](Cc2c[nH]c3ccccc23)NC(=O)[C@H](CC(=O)O)NC(=O)CCCC(=O)NC[C@H](O)[C@@H](O)[C@H](O)[C@H](O)CO)CSCc2cccc(n2)CSC[C@@H](C(=O)NC2CCN(CC(=O)N[C@H](CCC(=O)NC[C@H](O)[C@@H](O)[C@H](O)[C@H](O)CO)C(N)=O)CC2)NC1=O` [GIP-370, AGLU-Glutar-Asp-Trp-5Clw-Tap-Glu-leu-[Cys(2Lut)-Apc(DOTAM)-Leu-Ile-Cys]-APAc-glu(AGLU)-NH2] ({NH(1-deoxy-D-glucityl)-Glutaryl}-DW[Trp(5-Cl)][Pro(4R-NH2)]E[dL]C[Api](DO3AM)LIC[X1][dE](NH(1-deoxy-D-glucityl))-NH2; linker 7-11 via Pyridine(2,6-diCH2)), the IC50 is less than 10 nM.

Turning to `CC[C@H](C)[C@@H]1NC(=O)[C@H](CC(C)C)NC(=O)[C@](C)(CCCCNC(=O)CN2CCN(CC(=O)O)CCN(CC(=O)O)CCN(CC(=O)O)CC2)NC(=O)[C@@H](NC(=O)[C@@H](CC(C)C)NC(=O)[C@H](CCC(=O)O)NC(=O)[C@@H]2C[C@@H](N)CN2C(=O)[C@H](Cc2c[nH]c3ccc(Cl)cc23)NC(=O)[C@H](Cc2c[nH]c3ccccc23)NC(=O)[C@H](CC(=O)O)NC(=O)CCCC(=O)NC[C@H](O)[C@@H](O)[C@H](O)[C@H](O)CO)CSCc2cccc(n2)CSC[C@@H](C(=O)NC2CCN(CC(=O)N[C@H](CCC(=O)NC[C@H](O)[C@@H](O)[C@H](O)[C@H](O)CO)C(N)=O)CC2)NC1=O` [GIP-371, AGLU-Glutar-Asp-Trp-5Clw-Tap-Glu-leu-[Cys(2Lut)-Amk(DOTA)-Leu-Ile-Cys]-APAc-glu(AGLU)-NH] ({NH(1-deoxy-D-glucityl)-Glutaryl}-DW[Trp(5-Cl)][Pro(4R-NH2)]E[dL]C[αMeK](DOTA)LIC[X1][dE](NH(1-deoxy-D-glucityl))-NH2; linker 7-11 via Pyridine(2,6-diCH2)), the IC50 is less than 10 nM.

On to `CC[C@H](C)[C@@H]1NC(=O)[C@H](CC(C)C)NC(=O)C2(CCOCC2)NC(=O)[C@@H](NC(=O)[C@@H](CC(C)C)NC(=O)[C@H](CCC(=O)O)NC(=O)[C@@H]2C[C@@H](O)CN2C(=O)[C@H](Cc2c[nH]c3ccc(Cl)cc23)NC(=O)[C@H](Cc2c[nH]c3ccc(Cl)cc23)NC(=O)[C@H](CC(=O)O)NC(C)=O)CSCc2cccc(n2)CSC[C@@H](C(N)=O)NC1=O` [GIP-379, Ac-Asp-5Clw-5Clw-Hyp-Glu-leu-[Cys(2Lut)-Thp-Leu-Ile-Cys]-NH2] (Ac-D[Trp(5-Cl)][Trp(5-Cl)][Hyp]E[dL]C[Thp]LIC-NH2; linker 7-11 via Pyridine(2,6-diCH2)), for which the IC50 was less than 10 nM.

On to `CC[C@H](C)[C@@H]1NC(=O)[C@H](CC(C)C)NC(=O)C2(CCOCC2)NC(=O)[C@@H](NC(=O)[C@@H](CC(C)C)NC(=O)[C@H](CCC(=O)O)NC(=O)[C@@H]2C[C@@H](O)CN2C(=O)[C@H](Cc2c[nH]c3ccc(Cl)cc23)NC(=O)[C@H](Cc2cccc3ccccc23)NC(=O)[C@H](CC(=O)O)NC(C)=O)CSCc2cccc(n2)CSC[C@@H](C(N)=O)NC1=O` [GIP-380, Ac-Asp-1Ni-5Clw-Hyp-Glu-leu-[Cys(2Lut)-Thp-Leu-Ile-Cys]-NH2] (Ac-D[1Nal][Trp(5-Cl)][Hyp]E[dL]C[Thp]LIC-NH2; linker 7-11 via Pyridine(2,6-diCH2)), for which the IC50 is less than 10 nM.

As for `CC[C@H](C)[C@@H]1NC(=O)[C@H](CC(C)C)NC(=O)C2(CCOCC2)NC(=O)[C@@H](NC(=O)[C@@H](CC(C)C)NC(=O)[C@H](CCC(=O)O)NC(=O)[C@@H]2C[C@@H](O)CN2C(=O)[C@H](Cc2c[nH]c3ccc(Cl)cc23)NC(=O)[C@H](Cc2c[nH]c3ccccc23)NC(=O)[C@@H](CC(=O)O)NC(C)=O)CSCc2cccc(n2)CSC[C@@H](C(N)=O)NC1=O` [GIP-381, Ac-asp-Trp-5Clw-Hyp-Glu-leu-[Cys(2Lut)-Thp-Leu-Ile-Cys]-NH2] (Ac-[dD]W[Trp(5-Cl)][Hyp]E[dL]C[Thp]LIC-NH2; linker 7-11 via Pyridine(2,6-diCH2)), the IC50 is less than 10 nM.

For the molecule `CC[C@H](C)[C@@H]1NC(=O)[C@H](CC(C)C)NC(=O)C2(CCOCC2)NC(=O)[C@@H](NC(=O)[C@@H](CC(C)C)NC(=O)[C@H](CCC(=O)O)NC(=O)[C@@H]2C[C@@H](O)CN2C(=O)[C@H](Cc2c[nH]c3ccc(Cl)cc23)NC(=O)[C@H](Cc2c[nH]c3ccc(F)cc23)NC(=O)[C@H](CC(=O)O)NC(C)=O)CSCc2cccc(n2)CSC[C@@H](C(N)=O)NC1=O` [GIP-382, Ac-Asp-5Fw-5Clw-Hyp-Glu-leu-[Cys(2Lut)-Thp-Leu-Ile-Cys]-NH2] (Ac-D[Trp(5-F)][Trp(5-Cl)][Hyp]E[dL]C[Thp]LIC-NH2; linker 7-11 via Pyridine(2,6-diCH2)), the IC50 is less than 10 nM.

As for `CC[C@H](C)[C@@H]1NC(=O)[C@H](CC2CCCCC2)NC(=O)C2(CCOCC2)NC(=O)[C@@H](NC(=O)[C@@H](CC(C)C)NC(=O)[C@H](CCC(=O)O)NC(=O)[C@@H]2C[C@@H](O)CN2C(=O)[C@H](Cc2c[nH]c3ccc(Cl)cc23)NC(=O)[C@H](Cc2c[nH]c3ccccc23)NC(=O)[C@H](CC(=O)O)NC(C)=O)CSCc2cccc(n2)CSC[C@@H](C(N)=O)NC1=O` [GIP-383, Ac-Asp-Trp-5Clw-Hyp-Glu-leu-[Cys(2Lut)-Thp-Cha-Ile-Cys]-NH2] (Ac-DW[Trp(5-Cl)][Hyp]E[dL]C[Thp][Cha]IC-NH2; linker 7-11 via Pyridine(2,6-diCH2)), the IC50 is less than 10 nM.

Turning to `CC[C@H](C)[C@@H]1NC(=O)[C@H](CC(C)C)NC(=O)C2(CCOCC2)NC(=O)[C@@H](NC(=O)[C@@H](CC(C)C)NC(=O)[C@H](CO)NC(=O)[C@@H]2C[C@@H](O)CN2C(=O)[C@H](Cc2c[nH]c3ccc(Cl)cc23)NC(=O)[C@H](Cc2c[nH]c3ccccc23)NC(=O)[C@H](CC(=O)O)NC(C)=O)CSCc2cccc(n2)CSC[C@@H](C(N)=O)NC1=O` [GIP-384, Ac-Asp-Trp-5Clw-Hyp-Ser-leu-[Cys(2Lut)-Thp-Leu-Ile-Cys]-NH2] (Ac-DW[Trp(5-Cl)][Hyp]S[dL]C[Thp]LIC-NH2; linker 7-11 via Pyridine(2,6-diCH2)), the IC50 was less than 10 nM.

As to `CC[C@H](C)[C@@H]1NC(=O)[C@H](CC(C)C)NC(=O)C2(CCOCC2)NC(=O)[C@@H](NC(=O)[C@@H](CC(C)C)NC(=O)[C@@H](NC(=O)[C@@H]2C[C@@H](O)CN2C(=O)[C@H](Cc2c[nH]c3ccc(Cl)cc23)NC(=O)[C@H](Cc2c[nH]c3ccccc23)NC(=O)[C@H](CC(=O)O)NC(C)=O)C(C)C)CSCc2cccc(n2)CSC[C@@H](C(N)=O)NC1=O` [GIP-385, Ac-Asp-Trp-5Clw-Hyp-Val-leu-[Cys(2Lut)-Thp-Leu-Ile-Cys]-NH2] (Ac-DW[Trp(5-Cl)][Hyp]V[dL]C[Thp]LIC-NH2; linker 7-11 via Pyridine(2,6-diCH2)), the IC50 was less than 10 nM.

As to `CC[C@H](C)[C@@H]1NC(=O)[C@H](CC(C)C)NC(=O)C2(CCOCC2)NC(=O)[C@@H](NC(=O)[C@@H](CC(C)C)NC(=O)[C@H](C)NC(=O)[C@@H]2C[C@@H](O)CN2C(=O)[C@H](Cc2c[nH]c3ccc(Cl)cc23)NC(=O)[C@H](Cc2c[nH]c3ccccc23)NC(=O)[C@H](CC(=O)O)NC(C)=O)CSCc2cccc(n2)CSC[C@@H](C(N)=O)NC1=O` [GIP-386, Ac-Asp-Trp-5Clw-Hyp-Ala-leu-[Cys(2Lut)-Thp-Leu-Ile-Cys]-NH2] (Ac-DW[Trp(5-Cl)][Hyp]A[dL]C[Thp]LIC-NH2; linker 7-11 via Pyridine(2,6-diCH2)), the IC50 is less than 10 nM.

With `CC[C@H](C)[C@@H]1NC(=O)[C@H](CC(C)C)NC(=O)C2(CCOCC2)NC(=O)[C@@H](NC(=O)[C@@H](CC(C)C)NC(=O)[C@H](CCC(=O)O)NC(=O)[C@@H]2C[C@@H](O)CN2C(=O)[C@H](Cc2c[nH]c3ccc(Cl)cc23)NC(=O)[C@H](Cc2ccccc2Cl)NC(=O)[C@H](CC(=O)O)NC(=O)CCC(=O)NCCCOCCOCCOCCCNC(=O)CN2CCN(CC(=O)O)CCN(CC(=O)O)CCN(CC(=O)O)CC2)CSCc2cccc(n2)CSC[C@@H](C(N)=O)NC1=O` [GIP-387, DOTA-Ttds-Asp-Ocf-5Clw-Hyp-Glu-leu-[Cys(2Lut)-Thp-Leu-Ile-Cys]-NH2] ({X3-Suc}-D[Phe(2-Cl)][Trp(5-Cl)][Hyp]E[dL]C[Thp]LIC-NH2; linker 7-11 via Pyridine(2,6-diCH2)), the IC50 was 10 to 79.4 nM.
